Laboratory results: ChEMBL document CHEMBL1681714, “Organelle-selective energy transfer: a fluorescent indicator of intracellular environment” (Bioorg Med Chem Lett, 2011)

How the values were obtained:
Conditions in all cases: 0.5 h; call rule not given here
[1] = Drug uptake in rat Clone 9 cells assessed as accumulation in lysosomes after 30 mins by fluorescence microscopy; type: ADME, cell-based
[2] = Drug uptake in rat Clone 9 cells assessed as accumulation in endoplasmic reticulum after 30 mins by fluorescence microscopy; type: ADME, cell-based
[3] = Drug uptake in rat Clone 9 cells assessed as localization to endoplasmic reticulum after 30 mins by fluorescence microscopy; type: ADME, cell-based
[4] = Drug uptake in rat Clone 9 cells assessed as accumulation in mitochondria after 30 mins by fluorescence microscopy; type: ADME
[5] = Drug uptake in rat Clone 9 cells assessed as accumulation in cytoplasm after 30 mins by fluorescence microscopy; type: ADME, cell-based

| Drug uptake [1] | Drug uptake [2] | Drug uptake [3] | Drug uptake [4] | Drug uptake [5] | SMILES |
| --- | --- | --- | --- | --- | --- |
| Active | Active | Active | – | – | COc1ccccc1C1=[N+]2C(=C(c3ccc(C#Cc4ccc(C5=[N+]6C(=Cc7c(C)c(S(=O)(=O)[O-])c(C)n7[B-]6(F)F)C(=O)N5C)cc4)cc3OCC(=O)O)c3ccc(-c4ccccc4OC)n3[B-]2(F)F)C=C1.[Na+] |
| Active | – | Active | Active | Active | COc1cc(C#Cc2ccc3c(c2)C(C)(C)C(/C=C/C=C2/N(CCCCCC(=O)O)c4ccccc4C2(C)C)=[N+]3C)ccc1C1=C2C(C)=CC(C)=[N+]2[B-](F)(F)n2c(C)cc(C)c21.[I-] |
